Laboratory results from ChEMBL document CHEMBL1201862, “PubChem BioAssay data set” (2004).
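Test compounds were applied to cells in 96-well plates for 48 hours at 5 doses. GI50 is the concentration that inhibits growth by half.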 The source made the active and inactive calls. No stated cut-off is given here; in the data, active = GI50 up to about 1.1 µM and inactive = higher.

Experiments:
Experiment in all cases: inhibition of tumour cell growth, NCI panel, 48 h
[1] = system: MOLT-4
[2] = system: SN12C
[3] = system: LOX IMVI
[4] = system: OVCAR-4
[5] = system: HT-29
[6] = system: HCT-15
[7] = system: SK-MEL-2
[8] = system: DLD-1
[9] = system: SNB-19
[10] = system: IGROV-1
[11] = system: ACHN
[12] = system: COLO 205
[13] = system: HCC 2998
[14] = system: OVCAR-5
[15] = system: SK-OV-3
[16] = system: CCRF-CEM
[17] = system: SK-MEL-5
[18] = system: OVCAR-3
[19] = system: Hs-578T
[20] = system: PC-3

| Structure (SMILES) | GI50 [1] | GI50 [2] | GI50 [3] | GI50 [4] | GI50 [5] | GI50 [6] [µM] | GI50 [7] | GI50 [8] | GI50 [9] | GI50 [10] | GI50 [11] | GI50 [12] | GI50 [13] | GI50 [14] | GI50 [15] | GI50 [16] | GI50 [17] | GI50 [18] | GI50 [19] | GI50 [20] |
| --- | --- | --- | --- | --- | --- | --- | --- | --- | --- | --- | --- | --- | --- | --- | --- | --- | --- | --- | --- | --- |
| COC(=O)C(Cc1cc(OC)c(OC)c(OC)c1)(NC(=O)c1ccccc1)P(=O)(OC)OC (stereo not given) | > 100 µM (inactive) | > 100 µM (inactive) | > 100 µM (inactive) | > 100 µM (inactive) | > 100 µM (inactive) | > 100 | > 100 µM (inactive) | > 100 µM (inactive) | > 100 µM (inactive) | > 100 µM (inactive) | > 100 µM (inactive) | > 100 µM (inactive) | > 100 µM (inactive) | > 100 µM (inactive) | > 100 µM (inactive) | > 100 µM (inactive) | > 100 µM (inactive) |  |  |  |
| C=C(CO)CC(O)c1ccccc1 (stereo not given) | > 100 µM (inactive) | > 100 µM (inactive) | > 100 µM (inactive) | > 100 µM (inactive) | > 100 µM (inactive) | > 100 | > 100 µM (inactive) | > 100 µM (inactive) | > 100 µM (inactive) | > 100 µM (inactive) | > 100 µM (inactive) | > 100 µM (inactive) | > 100 µM (inactive) | > 100 µM (inactive) | > 100 µM (inactive) | > 100 µM (inactive) | > 100 µM (inactive) | > 100 µM (inactive) |  |  |
| COc1cc([C@@H]2c3cc4c(cc3[C@@H](OC3OC5COC(C)OC5C(O)C3O)[C@H]3COC(=O)[C@H]23)OCO4)cc(OC)c1O (stereo not given in full) | 0.547 µM (active) | 5.2 µM (inactive) | 2.74 µM (inactive) | 113 µM (inactive) | 28.8 µM (inactive) | 17.6 | 21.7 µM (inactive) | 37.2 µM (inactive) |  | 31.4 µM (inactive) |  | 40.3 µM (inactive) | 9.02 µM (inactive) | 25.2 µM (inactive) | 17.2 µM (inactive) | 1.4 µM (inactive) | 5.48 µM (inactive) | 39.4 µM (inactive) | 0.735 µM (active) | 0.661 µM (active) |
| CN(CCO)/N=N/c1n[nH]cc1C(N)=O | > 100 µM (inactive) | > 100 µM (inactive) | > 100 µM (inactive) | > 100 µM (inactive) | > 100 µM (inactive) | > 100 | > 100 µM (inactive) | > 100 µM (inactive) | > 100 µM (inactive) | > 100 µM (inactive) |  | > 100 µM (inactive) | > 100 µM (inactive) | > 100 µM (inactive) | > 100 µM (inactive) | > 100 µM (inactive) | > 100 µM (inactive) | > 100 µM (inactive) |  |  |
| O=C(O)CCCNS(=O)(=O)c1ccc2ccccc2c1 | > 100 µM (inactive) | > 100 µM (inactive) | > 100 µM (inactive) | > 100 µM (inactive) | > 100 µM (inactive) | > 100 | > 100 µM (inactive) | > 100 µM (inactive) | > 100 µM (inactive) | > 100 µM (inactive) | > 100 µM (inactive) | > 100 µM (inactive) | > 100 µM (inactive) | > 100 µM (inactive) | > 100 µM (inactive) | > 100 µM (inactive) | > 100 µM (inactive) | > 100 µM (inactive) |  |  |
| Cc1nc(-n2nc(-c3ccccc3)cc2-c2ccccc2)sc1C(=O)CC(=O)C(=O)Nc1ccc(Cl)c(Cl)c1 | 59.6 µM (inactive) | 91.6 µM (inactive) | 71 µM (inactive) | 66.4 µM (inactive) | 29.9 µM (inactive) | 56.1 | > 100 µM (inactive) | 34 µM (inactive) | 79.4 µM (inactive) | > 100 µM (inactive) | 25.1 µM (inactive) | 47.3 µM (inactive) | > 100 µM (inactive) | 53.8 µM (inactive) | 51.3 µM (inactive) | 41.3 µM (inactive) |  | 69.2 µM (inactive) |  |  |
| O=C(c1cc2c(C(F)(F)F)onc2c2ccccc12)C(F)(F)F | 1.15 µM (inactive) | 0.614 µM (active) | 1.63 µM (inactive) | 3.65 µM (inactive) | 3.7 µM (inactive) | 0.741 | 3.4 µM (inactive) | 0.484 µM (active) | 3.8 µM (inactive) | 2.74 µM (inactive) | 2.89 µM (inactive) | 3.08 µM (inactive) | 4.55 µM (inactive) | 6.9 µM (inactive) | 12.3 µM (inactive) | 0.34 µM (active) | 4.16 µM (inactive) | 2.22 µM (inactive) |  |  |
| CC(=O)OCCOCNC(=S)N/N=C/c1ccc([N+](=O)[O-])o1 |  | 74.5 µM (inactive) | 31.6 µM (inactive) | > 100 µM (inactive) | 30.3 µM (inactive) | 52.6 | 44.1 µM (inactive) | 53.1 µM (inactive) | > 100 µM (inactive) | > 100 µM (inactive) | 60.5 µM (inactive) | 15 µM (inactive) | 40.7 µM (inactive) | > 100 µM (inactive) | > 100 µM (inactive) | 23 µM (inactive) | 28.7 µM (inactive) | 33.6 µM (inactive) |  |  |
